Measured values reported in patent publication EP0238198A2, “Method of modifying the lipid structure function and expression of cell membranes and pharmaceutical compositions for use therein” (Habib, Nagy Adly, priority 1986, dated 1987).
“Also recorded” adds a separate entry of the source.

Experiments:
[1] = system: human embryonic lung fibroblasts; experiment: cell growth / cytotoxicity in the HSV2 host cell cultures (cell counting); assay type: cell-based; settings: stearic acid 100 micromolar
D23 Rat hepatoma = experiment: tumour cell colony inhibition test (clonogenic assay); assay type: cell-based; parameters: inhibition of colony formation: dose or concentration left out as unconfirmed; settings: for Mean no colonies ± SE: 5 days, medium control 41.8±3.5
Method: (§1) Cells from rat mammary carcinoma (Sp 22), primary rat fibroblasts (from alveolar tissue) and four rat hepatoma cell lines (D23, D261, D262A and D262B) were studied.
(§2) The method used for rat cells was as follows: 200 cells were plated per dish in 1 ml 'Eagles' methionine enriched medium (MEM) + 10% newborn calf serum (NBCS) in 30 mm culture dishes and incubated for four hours at 37°C. All became firmly adherent during this initial incubation. […] To control dishes 1 ml of MEM + NBCS was added, or 1 ml of MEM + NBCS + 1% ethanol. The dishes were incubated for 5 days. Medium was then removed, and the cell colonies were rinsed with 0.9% W/V NaCl solution and fixed for 15 minutes with methanol. Cell colonies were stained with 1% aqueous crystal violet and the dishes were allowed to dry.

D262A Rat hepatoma = experiment: as above; assay type: cell-based; parameters: inhibition of colony formation: dose or concentration left out as unconfirmed; settings: for Mean no colonies ± SE: 5 days, medium control 245.0±11.9
Method: as §1
as §2, with “incubation. […] Dilutions containing 20 µg/ml, […], 200 ng/ml and 2 ng/ml were prepared, 1 ml of each dilution was added to four dishes of cells, the final concentration being half the concentration of the material added.” for “incubation.”

[2] = system: three cancer cell lines from bladder, testis and hepatoma (liver cancer); experiment: clonogenic assay with three cancer cell lines; assay type: cell-based; parameters: inhibition of cell division: dose or concentration left out as unconfirmed
Method: In vitro studies have been conducted using a clonogenic assay utilising three cancer cell lines from bladder, testis and hepatoma (liver cancer), incubating the cells for two weeks with saturated fatty acids. The control cells were incubated without any addition. The control cells grew during this time period and formed multiple colonies, as was expected.

mammary carcinoma = experiment: NMU-induced mammary carcinoma in rats, Example 1; assay type: in vivo, female Sprague-Dawley rats
Method: NMU was administered intravenously to thirty female Sprague-Dawley rats weighing approximately 200g. It has been well established that with this animal model breast cancers will develop in the majority by 12 weeks from the commencement of the giving of the carcinogen (Gullino, P.M., Pettigrew, H.M., and Grantham, E.H., I. National Cancer Inst. 1975, 54, 401-409). The rats were divided into two groups, with those of the first group (twenty rats) receiving NMU alone, and those of the second group (ten rats) receiving NMU plus stearic acid. NMU in 3% acetic acid was dissolved in distilled water (20mg/ml) and was given in three intravenous injections of 5mg/100g body weight at weeks 1, 4 and 8. […] The onset of tumours was monitored by daily inspection and by palpation of the mammary regions twice weekly. At week 22, all surviving animals were sacrificed, and autopsies were performed. The tumours located thereby were dissected and examined histologically. In the control animals who were given carcinogen alone 19 out of the 20 animals had developed breast cancers by week 16 of the experiment, with a mean latent period of 72 days. […] The range of tumour weight/rat was 5g to 47.8g with a mean value of 23.6g per rat (excluding the tumour free animal). […] These five rats had seven tumours in all, with a mean of 1.4 tumours per rat (p less than 0.001 compared to the control group). The range of tumour weight/rat was 4.2g to 21.2g, with an average of 16.4g/rat (p less than 0.01 compared to the control group). […] Of the remaining 8 live rats from this group which were killed at week 22, only three had tumours, the other five being tumour-free.

D262B Rat hepatoma [3] = experiment: tumour cell colony inhibition test (clonogenic assay); assay type: cell-based
D261 Rat hepatoma = experiment: as above; assay type: cell-based; settings: for Mean no colonies ± SE: 5 days, medium control 33.0±5.1
Method: as §1
as §2, with “incubation. […] Dilutions containing 20 µg/ml, […], 200 ng/ml and 2 ng/ml were prepared, 1 ml of each dilution was added to four dishes of cells, the final concentration being half the concentration of the material added.” for “incubation.”

D262B Rat hepatoma [4] = experiment: as above; assay type: cell-based; settings: for Mean no colonies ± SE: 5 days, medium control 37.0± 4.0
Method: as §1
as §2, with “incubation. […] Dilutions containing 20 µg/ml, […], 200 ng/ml and 2 ng/ml were prepared, 1 ml of each dilution was added to four dishes of cells, the final concentration being half the concentration of the material added.” for “incubation.”

[5] = system: Sp22 Rat mammary carcinoma; experiment: as above; assay type: cell-based; settings: for Mean no colonies ± SE: 5 days, medium control 61.0±6
Method: as §1
as §2, with “incubation. […] Dilutions containing 20 µg/ml, […], 200 ng/ml and 2 ng/ml were prepared, 1 ml of each dilution was added to four dishes of cells, the final concentration being half the concentration of the material added.” for “incubation.”

[6] = Rattus norvegicus, 120 h, read-out: % colony formation relative to medium control
[7] = NMU plus stearic acid 10mg s.c. weekly

CCCCCCCCCCCCCCCCCC(=O)O [stearic acid, octadecanoic acid]
inhibition of cell division / cell growth [1]: inhibits cell division; also recorded: (+) = some inhibition of cell growth at this concentration of fatty acid supplementation | inhibition of colony formation (D23 Rat hepatoma): significant inhibition of colony formation | activity at 0.01 µg/mL (D23 Rat hepatoma; [6]): 101% | activity at 0.1 µg/mL (D23 Rat hepatoma; [6]): 88.5% | activity at 1 µg/mL (D23 Rat hepatoma; [6]): 67% | activity at 10 µg/mL (D23 Rat hepatoma; [6]): 67% | activity at 50 µg/mL (D23 Rat hepatoma; [6]): 23% | Mean no colonies ± SE (D23 Rat hepatoma; stearic acid 10ng/ml): 42.3±1.6 | Mean no colonies ± SE (D23 Rat hepatoma; stearic acid 100 ng/ml): 37.0±1.5 | Mean no colonies ± SE (D23 Rat hepatoma; stearic acid 1μg/ml): 28.0±1.5 | Mean no colonies ± SE (D23 Rat hepatoma; stearic acid 10 μg/ml): 28.0±2.9 | Mean no colonies ± SE (D23 Rat hepatoma; stearic acid 50 μg/ml): 10.0±2.6 | inhibition of colony formation (D262A Rat hepatoma): significant inhibition of colony formation | activity at 0.01 µg/mL (D262A Rat hepatoma; [6]): 88% | activity at 0.1 µg/mL (D262A Rat hepatoma; [6]): 101% | activity at 1 µg/mL (D262A Rat hepatoma; [6]): 83.2% | activity at 10 µg/mL (D262A Rat hepatoma; [6]): 74.7% | activity at 50 µg/mL (D262A Rat hepatoma; [6]): 32.4% | Mean no colonies ± SE (D262A Rat hepatoma; stearic acid 10ng/ml): 216.0± 8.8 | Mean no colonies ± SE (D262A Rat hepatoma; stearic acid 100 ng/ml): 247.8± 8.3 | Mean no colonies ± SE (D262A Rat hepatoma; stearic acid 1μg/ml): 203.8±18.1 | Mean no colonies ± SE (D262A Rat hepatoma; stearic acid 10 μg/ml): 190.3±13.6 | Mean no colonies ± SE (D262A Rat hepatoma; stearic acid 50 μg/ml): 79.3± 7.1 | cell division (colony formation) ([2]; incubation for two weeks, inhibition related to dose): failed to divide | inhibition of cell division ([2]; two weeks): complete inhibition of cell division | animals that had developed mammary tumours by week 16 (mammary carcinoma; NMU plus stearic acid 10mg in liquid paraffin s.c. weekly from second week, ten rats, NMU alone 19 out of 20): five of the original ten | rats with tumours among the 8 live rats killed at week 22 (mammary carcinoma; [7]): three | tumour-free rats among the 8 live rats killed at week 22 (mammary carcinoma; [7]): five | mean tumours per rat (mammary carcinoma; NMU plus stearic acid 10mg s.c. weekly, NMU alone 2.68, p less than 0.001): 1.4 tumours per rat | average tumour weight (mammary carcinoma; NMU plus stearic acid 10mg s.c. weekly, NMU alone 23.6g per rat, p less than 0.01): 16.4 g/rat | mean latent period (mammary carcinoma; NMU plus stearic acid 10mg s.c. weekly, NMU alone 72 days): 74 days | rats that had died by week 22 (mammary carcinoma; NMU plus stearic acid 10mg s.c. weekly, of ten rats, NMU alone all 19 with tumours died): 2 | activity at 0.01 µg/mL (D262B Rat hepatoma [3]; [6]): 109% | Mean no colonies ± SE (D262B Rat hepatoma [3]; stearic acid 10ng/ml, 5 days, medium control 37.0± 4.0): 40.3± 1.8 | activity at 1 µg/mL (D261 Rat hepatoma; [6]): 64.5% | activity at 10 µg/mL (D261 Rat hepatoma; [6]): 54.5% | activity at 50 µg/mL (D261 Rat hepatoma; [6]): 18.1% | inhibition of colony formation (D261 Rat hepatoma; dose of 10 µg/ml): significant inhibition of colony formation | Mean no colonies ± SE (D261 Rat hepatoma; stearic acid 1μg/ml): 21.0±3.0 | Mean no colonies ± SE (D261 Rat hepatoma; stearic acid 10 μg/ml): 18.0±1.5 | Mean no colonies ± SE (D261 Rat hepatoma; stearic acid 50 μg/ml): 6.0±3.0 | activity at 0.1 µg/mL (D262B Rat hepatoma [4]; [6]): 111% | activity at 1 µg/mL (D262B Rat hepatoma [4]; [6]): 83.8% | activity at 10 µg/mL (D262B Rat hepatoma [4]; [6]): 67.6% | activity at 50 µg/mL (D262B Rat hepatoma [4]; [6]): 48.6% | inhibition of colony formation (D262B Rat hepatoma [4]; dose of 10 µg/ml): significant inhibition of colony formation | Mean no colonies ± SE (D262B Rat hepatoma [4]; stearic acid 100 ng/ml): 41.0± 1.8 | Mean no colonies ± SE (D262B Rat hepatoma [4]; stearic acid 1μg/ml): 31.0± 5.8 | Mean no colonies ± SE (D262B Rat hepatoma [4]; stearic acid 10 μg/ml): 25.0± 2.8 | Mean no colonies ± SE (D262B Rat hepatoma [4]; stearic acid 50 μg/ml): 18.0± 4.5 | activity at 0.001 µg/mL [5, 6]: 83% | activity at 0.01 µg/mL [5, 6]: 91% | activity at 0.1 µg/mL [5, 6]: 86% | activity at 1 µg/mL [5, 6]: 93% | activity at 10 µg/mL [5, 6]: 96% | activity at 50 µg/mL [5, 6]: 84% | Mean no colonies ± SE ([5]; stearic acid 1ng/ml): 54.0±10 | Mean no colonies ± SE ([5]; stearic acid 10 ng/ml): 55.7±3 | Mean no colonies ± SE ([5]; stearic acid 100 ng/ml): 52.5±6 | Mean no colonies ± SE ([5]; stearic acid 1µg/ml): 56.7±3 | Mean no colonies ± SE ([5]; stearic acid 10 µg/ml): 58.7±1 | Mean no colonies ± SE ([5]; stearic acid 50 µg/ml): 51.2±6 | inhibition of colony development ([5]; summary of Table 2): failed to inhibit
